Measurements from article PMC3281113, “Recognition of Anesthetic Barbiturates by a Protein Binding Site: A High Resolution Structural Analysis” (PLoS ONE, 2012).
Like-named read-outs stand apart in the source and are kept apart here.

Columns and labels:
horse spleen apoferritin = target: T1, horse spleen apoferritin (Equus caballus, UniProt P02791); assay: isothermal titration calorimetry; assay type: binding
T1 construct: gene FTL; native spleen apoferritin from Sigma-Aldrich, 24-mer, heavy and light chains in approximate mole ratio 1:6; with Ferritin heavy chain
T1 sequence (P02791 2-175): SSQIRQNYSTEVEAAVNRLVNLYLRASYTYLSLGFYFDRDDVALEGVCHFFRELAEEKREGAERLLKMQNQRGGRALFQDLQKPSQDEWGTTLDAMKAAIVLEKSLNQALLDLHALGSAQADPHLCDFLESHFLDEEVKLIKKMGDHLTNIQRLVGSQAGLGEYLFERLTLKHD

[1] = target: the molecule itself; assay: crystal structure; apoferritin co-crystallized with thiopental or pentobarbital; reservoir 0.2-1.6 M (NH4)2SO4, 0.1-0.275 M CdSO4, 18°C; space group F432

CCCC(C)C1(CC)C(=O)NC(=O)NC1=O (racemic) [Pentobarbital]
Kd (horse spleen apoferritin): 64.3 ± 5.5 µM

CCCC(C)C1(CC)C(=O)NC(=S)NC1=O (racemic) [Thiopental]
Kd (horse spleen apoferritin; read-out: Thiopental): 11 ± 0.9 µM

CCC[C@@H](C)C1(CC)C(=O)NC(=S)NC1=O [R-form of thiopental]
Kd (horse spleen apoferritin; read-out: K d): 29.3 ± 3.1 µM

CCC[C@H](C)[C@@]1(CC)C(=O)N=C(S)NC1=O [S-enantiomer of thiopental]
Kd (horse spleen apoferritin; read-out: K d): 18.7 ± 0.9 µM

B1: horse spleen apoferritin (natural protein, UniProt P02791 1-175, looked up)
chain: MSSQIRQNYSTEVEAAVNRLVNLYLRASYTYLSLGFYFDRDDVALEGVCHFFRELAEEKREGAERLLKMQNQRGGRALFQDLQKPSQDEWGTTLDAMKAAIVLEKSLNQALLDLHALGSAQADPHLCDFLESHFLDEEVKLIKKMGDHLTNIQRLVGSQAGLGEYLFERLTLKHD
notes: ferritin light chain of horse spleen apoferritin; only the light chain is modelled in the structures; The commercial apoferritin is a mixture of heavy and light chains in an approximate mole ratio of 1:6; Only the light chain is seen in the electron density, so the 24-mer is written here as light chains only; also called L-chain; L-protomers; source: bought: Sigma-Aldrich; purified by gel …
stoichiometry N [1]: 24
